Assay results: PMC9933483, “Tail-Approach-Based Design and Synthesis of Coumarin-Monoterpenes as Carbonic Anhydrase Inhibitors and Anticancer Agents” (ACS Omega, 2023)

What was measured:
HT-29 cell line = assay: Cell cytotoxicity, MTT assay; format: cell-based, human; details: Homo sapiens, HT-29; MTT, 24 h
HEK293T cell line = assay: Cell cytotoxicity, MTT assay; format: cell-based; details: Homo sapiens, HEK-293T, 24 h, healthy cell line
PC-3 cell line = assay: Cell cytotoxicity, MTT assay; format: cell-based; details: Homo sapiens, 24 h
MCF-7 cell line = assay: Cell cytotoxicity, MTT assay; format: cell-based, human
hCA IX = hCA IX (Homo sapiens, UniProt Q16790); assay: biochemical

Work on `CC1CCC(C(C)C)C(OCCCCCCOc2ccc3ccc(=O)oc3c2)C1` (stereo not shown) [Compound 71, 7-((6-((2-Isopropyl-5-methylcyclohexyl)oxy)hexyl)oxy)-2H-chromen-2-one] yielded an IC50 (HT-29 cell line) of 18.6 ± 3.39 µM, an IC50 (HEK293T cell line) of 56.6 ± 10.5 µM and an IC50 (PC-3 cell line) of 36 ± 9.49 µM. For the same compound, the IC50 (MCF-7 cell line; Homo sapiens, MCF7, 24 h) was 30.7 ± 7.04 µM.

With `C=CCc1ccc(OCCCCCCCCCCCCOc2ccc3ccc(=O)oc3c2)c(OC)c1` [Compound 67, 7-((12-(4-Allyl-2-methoxyphenoxy)dodecyl)oxy)-2H-chromen-2-one] the IC50 (HT-29 cell line) was > 80 µM.

`Cc1ccc(C(C)C)c(OCc2cn(CCCCCCCCCOc3ccc4ccc(=O)oc4c3)nn2)c1` [Compound 17, 7-((9-(4-((2-Isopropyl-5-methylphenoxy)methyl)-1H-1,2,3-triazol-1-yl)nonyl)oxy)-2H-chromen-2-one] was tested, and the IC50 (HT-29 cell line) was 28.5 ± 8.9 µM, the Ki (hCA IX) was 0.213 µM and the IC50 (HEK293T cell line) was > 200 µM. For the same compound, the IC50 (PC-3 cell line) was 12.5 ± 4.4 µM and the IC50 (MCF-7 cell line; Homo sapiens, MCF7, 24 h) was > 200 µM.

`CC1CCC(C(C)C)C(OCc2cn(CCCCCCOc3ccc4ccc(=O)oc4c3)nn2)C1` (stereo not shown) [Compound 39, 7-((6-(4-(((2-Isopropyl-5-methylcyclohexyl)oxy)methyl)-1H-1,2,3-triazol-1-yl)hexyl)oxy)-2H-chromen-2-one] showed an IC50 (HT-29 cell line) of 65.6 ± 24.2 µM.

`Cc1ccc(C(C)C)cc1OCCCCCCCOc1ccc2ccc(=O)oc2c1` [Compound 56, 7-((7-(5-Isopropyl-2-methylphenoxy)heptyl)oxy)-2H-chromen-2-one] was tested, and the IC50 (HT-29 cell line) was > 80 µM, the IC50 (HEK293T cell line) was > 80 µM and the IC50 (PC-3 cell line) was 24.4 ± 4.12 µM. It also gave an IC50 (MCF-7 cell line; Homo sapiens, MCF7, 24 h) of 8.26 ± 1.28 µM.

In the case of `Cc1ccc(C(C)C)c(OCCCOc2ccc3ccc(=O)oc3c2)c1` [Compound 45, 7-(3-(2-Isopropyl-5-methylphenoxy)propoxy)-2H-chromen-2-one], the IC50 (HT-29 cell line) is reported as > 200 µM, the Ki (hCA IX) is reported as 0.192 µM and the IC50 (HEK293T cell line) is reported as 43.3 ± 5.43 µM. The IC50 (PC-3 cell line) was > 80 µM and the IC50 (MCF-7 cell line; Homo sapiens, MCF7, 24 h) was > 200 µM.

Compound `Cc1ccc(C(C)C)c(OCc2cn(CCCCCCCOc3ccc4ccc(=O)oc4c3)nn2)c1` [Compound 16, 7-((7-(4-((2-Isopropyl-5-methylphenoxy)methyl)-1H-1,2,3-triazol-1-yl)heptyl)oxy)-2H-chromen-2-one] has an IC50 (HT-29 cell line) of 21.6 ± 8.31 µM, an IC50 (HEK293T cell line) of 142 ± 49.6 µM and an IC50 (PC-3 cell line) of 167 ± 30.1 µM. The IC50 (MCF-7 cell line; Homo sapiens, MCF7, 24 h) was 73.1 ± 55.4 µM.

`CC1CCC(C(C)C)C(OCc2cn(CCCCCCCCCCOc3ccc4ccc(=O)oc4c3)nn2)C1` (stereo not shown) [Compound 42, 7-((10-(4-(((2-Isopropyl-5-methylcyclohexyl)oxy)methyl)-1H-1,2,3-triazol-1-yl)decyl)oxy)-2H-chromen-2-one] gave an IC50 (HT-29 cell line) of 32.9 ± 8.54 µM, a Ki (hCA IX) of 0.0019 µM and an IC50 (HEK293T cell line) of 83.2 ± 28.1 µM. For the same compound, the IC50 (PC-3 cell line) was 39.7 ± 17 µM and the IC50 (MCF-7 cell line; Homo sapiens, MCF7, 24 h) was > 200 µM.

`CC1CCC(C(C)C)C(OCCCCOc2ccc3ccc(=O)oc3c2)C1` (stereo not shown) [Compound 70, 7-(4-((2-Isopropyl-5-methylcyclohexyl)oxy)butoxy)-2H-chromen-2-one] was tested, and the IC50 (HT-29 cell line) was 14.7 ± 2.81 µM, the Ki (hCA IX) was 0.142 µM and the IC50 (HEK293T cell line) was 63.5 ± 11.4 µM. For the same compound, the IC50 (PC-3 cell line) was 24.8 ± 5.35 µM, the IC50 (MCF-7 cell line; 24 h) was 4.53 ± 1.06 µM and the IC50 (MCF-7 cell line; Homo sapiens, MCF7, 24 h) was 7.53 µM.

In the case of `CC1CCC(C(C)C)C(OCc2cn(CCCCCCCCCOc3ccc4ccc(=O)oc4c3)nn2)C1` (stereo not shown) [Compound 41, 7-((9-(4-(((2-Isopropyl-5-methylcyclohexyl)oxy)methyl)-1H-1,2,3-triazol-1-yl)nonyl)oxy)-2H-chromen-2-one], the IC50 (HT-29 cell line) is reported as 44.7 ± 15.1 µM and the Ki (hCA IX) is reported as 0.204 µM.

For `Cc1ccc(C(C)C)c(OCCCCCCOc2ccc3ccc(=O)oc3c2)c1` [Compound 47, 7-((6-(2-Isopropyl-5-methylphenoxy)hexyl)oxy)-2H-chromen-2-one], the IC50 (HT-29 cell line) was > 80 µM, the Ki (hCA IX) was 0.117 µM and the IC50 (HEK293T cell line) was > 80 µM. It also gave an IC50 (PC-3 cell line) of 29.1 ± 6.02 µM and an IC50 (MCF-7 cell line; Homo sapiens, MCF7, 24 h) of 18.4 ± 2.63 µM.

For `Cc1ccc(C(C)C)c(OCc2cn(CCCOc3ccc4ccc(=O)oc4c3)nn2)c1` [Compound 13, 7-(3-(4-((2-Isopropyl-5-methylphenoxy)methyl)-1H-1,2,3-triazol-1-yl)propoxy)-2H-chromen-2-one], the IC50 (HT-29 cell line) was 48.5 ± 8.73 µM.

For `Cc1ccc(C(C)C)c(OCc2cn(CCOc3ccc4ccc(=O)oc4c3)nn2)c1` [Compound 12, 7-(2-(4-((2-Isopropyl-5-methylphenoxy)methyl)-1H-1,2,3-triazol-1-yl)ethoxy)-2H-chromen-2-one], the IC50 (HT-29 cell line) was 48.5 ± 9.01 µM, the IC50 (HEK293T cell line) was 107 ± 19.5 µM and the IC50 (PC-3 cell line) was 50.2 ± 23.7 µM. The IC50 (MCF-7 cell line; Homo sapiens, MCF7, 24 h) was 45.7 ± 14.5 µM.

In the case of `CC1CCC(C(C)C)C(OCCOc2ccc3ccc(=O)oc3c2)C1` (stereo not shown) [Compound 68, 7-(2-((2-Isopropyl-5-methylcyclohexyl)oxy)ethoxy)-2H-chromen-2-one], the IC50 (HT-29 cell line) is reported as 40.7 ± 7.5 µM.

`Cc1ccc(C(C)C)cc1OCCCCCCCCCOc1ccc2ccc(=O)oc2c1` [Compound 57, 7-((9-(5-Isopropyl-2-methylphenoxy)nonyl)oxy)-2H-chromen-2-one] was tested, and the IC50 (HT-29 cell line) was > 200 µM.

`Cc1ccc(C(C)C)cc1OCc1cn(CCCOc2ccc3ccc(=O)oc3c2)nn1` [Compound 21, 7-(3-(4-((5-Isopropyl-2-methylphenoxy)methyl)-1H-1,2,3-triazol-1-yl)propoxy)-2H-chromen-2-one] showed an IC50 (HT-29 cell line) of 39.4 ± 15.8 µM.

`C=CCc1ccc(OCc2cn(CCCCCCOc3ccc4ccc(=O)oc4c3)nn2)c(OC)c1` [Compound 31, 7-((6-(4-((4-Allyl-2-methoxyphenoxy)methyl)-1H-1,2,3-triazol-1-yl)hexyl)oxy)-2H-chromen-2-one] was tested, and the IC50 (HT-29 cell line) was 45.2 ± 13.1 µM, the IC50 (HEK293T cell line) was 15.2 ± 1.06 µM and the IC50 (PC-3 cell line) was > 200 µM. It also gave an IC50 (MCF-7 cell line; Homo sapiens, MCF7, 24 h) of 16.8 ± 9.71 µM.

`Cc1ccc(C(C)C)cc1OCc1cn(CCOc2ccc3ccc(=O)oc3c2)nn1` [Compound 20, 7-(2-(4-((5-Isopropyl-2-methylphenoxy)methyl)-1H-1,2,3-triazol-1-yl)ethoxy)-2H-chromen-2-one] gave an IC50 (HT-29 cell line) of 25.9 ± 7.94 µM.

With `Cc1ccc(C(C)C)c(OCCCCCCCCCOc2ccc3ccc(=O)oc3c2)c1` [Compound 49, 7-((9-(2-Isopropyl-5-methylphenoxy)nonyl)oxy)-2H-chromen-2-one] the IC50 (HT-29 cell line) was > 200 µM and the Ki (hCA IX) was 0.123 µM.

With `Cc1ccc(C(C)C)c(OCCCCCCCOc2ccc3ccc(=O)oc3c2)c1` [Compound 48, 7-((7-(2-Isopropyl-5-methylphenoxy)heptyl)oxy)-2H-chromen-2-one] the IC50 (HT-29 cell line) was > 200 µM and the Ki (hCA IX) was 0.0368 µM.

With `Cc1ccc(C(C)C)c(OCCCCCCCCCCOc2ccc3ccc(=O)oc3c2)c1` [Compound 50, 7-((10-(2-Isopropyl-5-methylphenoxy)decyl)oxy)-2H-chromen-2-one] the IC50 (HT-29 cell line) was > 200 µM.

Work on `Cc1ccc(C(C)C)c(OCc2cn(CCCCCCOc3ccc4ccc(=O)oc4c3)nn2)c1` [Compound 15, 7-((6-(4-((2-Isopropyl-5-methylphenoxy)methyl)-1H-1,2,3-triazol-1-yl)hexyl)oxy)-2H-chromen-2-one] yielded an IC50 (HT-29 cell line) of 30.1 ± 10.2 µM, an IC50 (HEK293T cell line) of 59.7 ± 12.3 µM and an IC50 (PC-3 cell line) of 48.4 ± 14.4 µM. The IC50 (MCF-7 cell line; Homo sapiens, MCF7, 24 h) was 143 ± 58.5 µM.

Compound `Cc1ccc(C(C)C)cc1OCc1cn(CCCCOc2ccc3ccc(=O)oc3c2)nn1` [Compound 22, 7-(4-(4-((5-Isopropyl-2-methylphenoxy)methyl)-1H-1,2,3-triazol-1-yl)butoxy)-2H-chromen-2-one] has an IC50 (HT-29 cell line) of 37.4 ± 12.1 µM.

`CC1CCC(C(C)C)C(OCc2cn(CCCCCCCOc3ccc4ccc(=O)oc4c3)nn2)C1` (stereo not shown) [Compound 40, 7-((7-(4-(((2-Isopropyl-5-methylcyclohexyl)oxy)methyl)-1H-1,2,3-triazol-1-yl)heptyl)oxy)-2H-chromen-2-one] showed an IC50 (HT-29 cell line) of 54.8 ± 19.1 µM.

`COc1cccc2c1C(=O)c1c(O)c3c(c(O)c1C2=O)C[C@@](O)(C(=O)CO)C[C@@H]3O[C@H]1C[C@H](N)[C@H](O)[C@H](C)O1` [Dox, doxorubicin, reference compound] gave an IC50 (HT-29 cell line) of 7.41 ± 1.9 µM, an IC50 (HEK293T cell line) of 2.03 ± 0.12 µM and an IC50 (PC-3 cell line) of 4.48 ± 1.08 µM. It also gave an IC50 (MCF-7 cell line; Homo sapiens, MCF7, 24 h) of 0.64 ± 0.11 µM.
